How the values were obtained:
Assay in all cases: Ambit KinomeScan screening
Type in all cases: binding
Conditions in all cases: CAL-130 10 μM
FGFR1 = molecular target: T1, FGFR1 (Homo sapiens, UniProt P11362)
T1 construct: unspecified tag; purchased Ambit (KinomeScan screening service)
How it was run: (§1)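 CAL-130 was tested at 10 μM for its ability to block tagged kinases from binding an immobilized bait ligand across a 353-kinase panel. Values are expressed as percent of control binding, with lower numbers meaning stronger interaction and values above 35% classed as no hit.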

GRK1 = molecular target: T2, GRK1 (Homo sapiens, UniProt Q15835)
T2 construct: unspecified tag ('tagged kinases'); purchased Ambit (KinomeScan screening service)
How it was run: as §1

TEC = molecular target: T3, TEC (Homo sapiens, UniProt P42680)
T3 construct: unspecified tag (tagged kinase); purchased Ambit (KinomeScan screening)
How it was run: as §1

SIK = molecular target: T4, SIK (Homo sapiens, UniProt P57059)
T4 construct: tag, kind not specified; purchased Ambit (KinomeScan screening service)
How it was run: as §1

EPHB3 = molecular target: T5, EPHB3 (Homo sapiens, UniProt P54753)
T5 construct: purchased Ambit (KinomeScan screening service)
How it was run: as §1

TESK1 = molecular target: T6, TESK1 (Homo sapiens, UniProt Q15569)
T6 construct: unspecified tag (tagged kinase); purchased Ambit (KinomeScan screening)
How it was run: as §1

KIT(V559D) = molecular target: T7, KIT(V559D) (Homo sapiens, UniProt P10721, V559D)
T7 construct: purchased Ambit (KinomeScan screening)
How it was run: as §1

ACVR2A = molecular target: T8, ACVR2A (Homo sapiens, UniProt P27037)
T8 construct: purchased Ambit (KinomeScan screening)
How it was run: as §1

FAK = molecular target: T9, FAK (Homo sapiens, UniProt Q05397)
T9 construct: unspecified tag ("tagged kinases"); purchased Ambit (KinomeScan screening service)
How it was run: as §1

PCTK3 = molecular target: T10, PCTK3 (Homo sapiens, UniProt Q07002)
T10 construct: unspecified tag ('tagged kinases'); purchased Ambit (KinomeScan screening)
How it was run: as §1

JAK2(JH1domain) = molecular target: T11, JAK2(JH1domain) (Homo sapiens, UniProt O60674)
T11 construct: JAK2(JH1domain); purchased Ambit (KinomeScan screening)
How it was run: as §1

CSNK1E = molecular target: T12, CSNK1E (Homo sapiens, UniProt P49674)
T12 construct: purchased Ambit (KinomeScan screening service)
How it was run: as §1

CSK = molecular target: T13, CSK (Homo sapiens, UniProt P41240)
T13 construct: purchased Ambit (KinomeScan screening service)
How it was run: as §1

MARK2 = molecular target: T14, MARK2 (Homo sapiens, UniProt Q7KZI7)
T14 construct: Ambit (KinomeScan screening)
How it was run: as §1

PRKD2 = molecular target: T15, PRKD2 (Homo sapiens, UniProt Q9BZL6)
T15 construct: purchased Ambit (KinomeScan screening service)
How it was run: as §1

TGFBR1 = molecular target: T16, TGFBR1 (Homo sapiens, UniProt P36897)
T16 construct: unspecified tag (tagged kinase); purchased Ambit (KinomeScan screening)
How it was run: as §1

LATS2 = molecular target: T17, LATS2 (Homo sapiens, UniProt Q9NRM7)
T17 construct: unspecified tag ('tagged kinases'); purchased Ambit (KinomeScan screening service)
How it was run: as §1

FGFR4 = molecular target: T18, FGFR4 (Homo sapiens, UniProt P22455)
T18 construct: unspecified tag; purchased Ambit (KinomeScan screening service)
How it was run: as §1

PKN1 = molecular target: T19, PKN1 (Homo sapiens, UniProt Q16512)
T19 construct: purchased Ambit (KinomeScan screening service)
How it was run: as §1

EGFR(L861Q) = molecular target: T20, EGFR(L861Q) (Homo sapiens, UniProt P00533, L861Q)
T20 construct: unspecified tag; purchased Ambit (KinomeScan screening service)
How it was run: as §1

EPHA6 = molecular target: T21, EPHA6 (Homo sapiens, UniProt Q9UF33)
T21 construct: purchased Ambit (KinomeScan screening service)
How it was run: as §1

CDK11 = molecular target: T22, CDK11 (Homo sapiens, UniProt Q9BWU1)
T22 construct: purchased Ambit (KinomeScan screening)
How it was run: as §1

FLT3(N841I) = molecular target: T23, FLT3(N841I) (Homo sapiens, UniProt P36888, N841I)
T23 construct: unspecified tag; purchased Ambit (KinomeScan screening service)
How it was run: as §1

ARK5 = molecular target: T24, ARK5 (Homo sapiens, UniProt O60285)
T24 construct: purchased Ambit (KinomeScan screening service)
How it was run: as §1

MEK6 = molecular target: T25, MEK6 (Homo sapiens, UniProt P52564)
T25 construct: purchased Ambit (KinomeScan screening)
How it was run: as §1

EPHA4 = molecular target: T26, EPHA4 (Homo sapiens, UniProt P54764)
T26 construct: purchased Ambit (KinomeScan screening service)
How it was run: as §1

PAK2 = molecular target: T27, PAK2 (Homo sapiens, UniProt Q13177)
T27 construct: purchased Ambit (KinomeScan screening service)
How it was run: as §1

MET = molecular target: T28, MET (Homo sapiens, UniProt P08581)
T28 construct: purchased Ambit (KinomeScan screening)
How it was run: as §1

PDGFRB = molecular target: T29, PDGFRB (Homo sapiens, UniProt P09619)
T29 construct: unspecified tag ('tagged kinases'); purchased Ambit (KinomeScan screening)
How it was run: as §1

CAMK1 = molecular target: T30, CAMK1 (Homo sapiens, UniProt Q14012)
T30 construct: unspecified tag ("tagged kinases"); purchased Ambit (KinomeScan screening)
How it was run: as §1

FGFR3 = molecular target: T31, FGFR3 (Homo sapiens, UniProt P22607)
T31 construct: unspecified tag; purchased Ambit (KinomeScan screening service)
How it was run: as §1

MAPKAPK5 = molecular target: T32, MAPKAPK5 (Homo sapiens, UniProt Q8IW41)
T32 construct: Ambit (KinomeScan screening)
How it was run: as §1

DMPK2 = molecular target: T33, DMPK2 (Homo sapiens, UniProt Q6DT37)
T33 construct: unspecified tag ("tagged kinases"); purchased Ambit (KinomeScan screening service)
How it was run: as §1

INSR = molecular target: T34, INSR (Homo sapiens, UniProt P06213)
T34 construct: Ambit (KinomeScan screening)
How it was run: as §1

MST3 = molecular target: T35, MST3 (Homo sapiens, UniProt Q9Y6E0)
T35 construct: unspecified tag; purchased Ambit (KinomeScan screening panel)
How it was run: as §1

TNK1 = molecular target: T36, TNK1 (Homo sapiens, UniProt Q13470)
T36 construct: unspecified tag (tagged kinase); purchased Ambit (KinomeScan screening)
How it was run: as §1

Measured: Percent of Control Binding

T27 sequence (Q13177 whole entry): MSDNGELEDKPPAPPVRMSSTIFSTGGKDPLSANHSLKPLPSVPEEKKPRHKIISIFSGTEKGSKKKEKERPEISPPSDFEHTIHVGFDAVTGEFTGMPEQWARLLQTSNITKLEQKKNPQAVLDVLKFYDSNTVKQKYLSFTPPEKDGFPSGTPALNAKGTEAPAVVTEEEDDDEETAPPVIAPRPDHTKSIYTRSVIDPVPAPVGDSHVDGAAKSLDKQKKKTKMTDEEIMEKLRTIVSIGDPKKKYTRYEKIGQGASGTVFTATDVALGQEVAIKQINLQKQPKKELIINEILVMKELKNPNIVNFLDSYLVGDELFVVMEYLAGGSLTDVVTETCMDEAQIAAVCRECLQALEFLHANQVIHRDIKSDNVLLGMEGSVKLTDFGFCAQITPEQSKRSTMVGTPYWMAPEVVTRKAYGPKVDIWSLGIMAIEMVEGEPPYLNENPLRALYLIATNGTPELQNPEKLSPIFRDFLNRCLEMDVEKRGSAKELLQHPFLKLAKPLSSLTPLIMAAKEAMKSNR
T33 sequence (Q6DT37 whole entry): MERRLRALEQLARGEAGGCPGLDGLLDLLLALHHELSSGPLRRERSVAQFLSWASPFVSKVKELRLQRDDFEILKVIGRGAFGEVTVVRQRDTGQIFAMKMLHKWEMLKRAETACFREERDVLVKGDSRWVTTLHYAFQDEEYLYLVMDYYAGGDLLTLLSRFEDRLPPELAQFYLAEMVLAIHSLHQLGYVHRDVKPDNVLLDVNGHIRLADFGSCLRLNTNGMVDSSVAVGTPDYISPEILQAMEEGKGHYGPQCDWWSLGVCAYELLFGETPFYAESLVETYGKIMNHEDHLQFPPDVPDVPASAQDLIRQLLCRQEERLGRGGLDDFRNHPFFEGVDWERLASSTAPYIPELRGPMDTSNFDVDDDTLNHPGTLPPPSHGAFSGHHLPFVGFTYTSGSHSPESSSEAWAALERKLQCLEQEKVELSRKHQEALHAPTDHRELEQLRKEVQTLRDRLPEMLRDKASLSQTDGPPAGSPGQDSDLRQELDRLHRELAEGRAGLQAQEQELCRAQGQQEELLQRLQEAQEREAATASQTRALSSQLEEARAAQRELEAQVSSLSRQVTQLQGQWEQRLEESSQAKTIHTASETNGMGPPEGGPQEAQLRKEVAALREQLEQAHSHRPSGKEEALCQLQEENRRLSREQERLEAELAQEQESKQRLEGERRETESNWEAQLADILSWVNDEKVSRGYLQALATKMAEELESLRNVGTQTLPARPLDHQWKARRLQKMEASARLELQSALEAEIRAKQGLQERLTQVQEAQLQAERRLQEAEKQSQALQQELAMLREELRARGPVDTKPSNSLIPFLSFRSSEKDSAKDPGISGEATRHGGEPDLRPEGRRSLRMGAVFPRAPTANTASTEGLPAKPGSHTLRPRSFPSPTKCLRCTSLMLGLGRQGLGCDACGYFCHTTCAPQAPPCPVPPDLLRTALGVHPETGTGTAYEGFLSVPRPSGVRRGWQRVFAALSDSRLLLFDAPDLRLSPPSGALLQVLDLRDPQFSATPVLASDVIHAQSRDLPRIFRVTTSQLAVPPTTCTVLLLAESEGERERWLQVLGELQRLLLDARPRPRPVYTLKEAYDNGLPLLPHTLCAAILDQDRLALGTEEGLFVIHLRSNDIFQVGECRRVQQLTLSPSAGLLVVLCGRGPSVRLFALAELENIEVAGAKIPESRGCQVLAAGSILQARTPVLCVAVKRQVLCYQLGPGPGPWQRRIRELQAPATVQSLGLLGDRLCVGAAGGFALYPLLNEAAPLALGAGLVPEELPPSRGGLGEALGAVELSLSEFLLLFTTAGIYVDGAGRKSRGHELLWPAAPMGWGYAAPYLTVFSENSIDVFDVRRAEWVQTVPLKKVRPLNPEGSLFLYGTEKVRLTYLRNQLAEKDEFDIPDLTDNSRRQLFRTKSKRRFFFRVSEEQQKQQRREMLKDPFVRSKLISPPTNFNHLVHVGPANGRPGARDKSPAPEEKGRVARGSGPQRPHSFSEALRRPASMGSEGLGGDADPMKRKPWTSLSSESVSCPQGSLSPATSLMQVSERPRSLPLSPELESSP
T8 sequence (P27037 20-513): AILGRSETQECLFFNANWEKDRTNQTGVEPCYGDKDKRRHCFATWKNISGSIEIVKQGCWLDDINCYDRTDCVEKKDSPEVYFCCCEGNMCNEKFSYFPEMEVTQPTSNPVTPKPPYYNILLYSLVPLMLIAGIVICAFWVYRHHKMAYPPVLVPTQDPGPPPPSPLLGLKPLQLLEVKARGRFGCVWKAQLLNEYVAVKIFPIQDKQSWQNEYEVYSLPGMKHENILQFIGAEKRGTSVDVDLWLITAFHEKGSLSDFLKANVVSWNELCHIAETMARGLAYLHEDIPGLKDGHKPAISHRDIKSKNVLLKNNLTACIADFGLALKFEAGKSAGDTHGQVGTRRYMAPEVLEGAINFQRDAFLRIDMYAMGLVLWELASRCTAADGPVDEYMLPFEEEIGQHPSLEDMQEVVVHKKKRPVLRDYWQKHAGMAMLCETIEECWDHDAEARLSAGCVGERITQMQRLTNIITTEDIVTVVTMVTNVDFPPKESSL
T12 sequence (P49674 whole entry): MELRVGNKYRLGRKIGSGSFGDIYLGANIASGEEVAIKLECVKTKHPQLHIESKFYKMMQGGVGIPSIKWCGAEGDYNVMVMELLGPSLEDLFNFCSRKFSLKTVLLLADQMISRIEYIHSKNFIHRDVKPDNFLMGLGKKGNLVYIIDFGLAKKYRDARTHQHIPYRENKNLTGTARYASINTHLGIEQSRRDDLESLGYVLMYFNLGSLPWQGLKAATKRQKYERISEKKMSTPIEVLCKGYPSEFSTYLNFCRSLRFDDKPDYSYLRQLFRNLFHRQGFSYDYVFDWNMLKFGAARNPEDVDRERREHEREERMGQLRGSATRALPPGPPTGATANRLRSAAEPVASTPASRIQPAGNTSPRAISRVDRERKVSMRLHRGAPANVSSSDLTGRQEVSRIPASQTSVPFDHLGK
T4 sequence (P57059 whole entry): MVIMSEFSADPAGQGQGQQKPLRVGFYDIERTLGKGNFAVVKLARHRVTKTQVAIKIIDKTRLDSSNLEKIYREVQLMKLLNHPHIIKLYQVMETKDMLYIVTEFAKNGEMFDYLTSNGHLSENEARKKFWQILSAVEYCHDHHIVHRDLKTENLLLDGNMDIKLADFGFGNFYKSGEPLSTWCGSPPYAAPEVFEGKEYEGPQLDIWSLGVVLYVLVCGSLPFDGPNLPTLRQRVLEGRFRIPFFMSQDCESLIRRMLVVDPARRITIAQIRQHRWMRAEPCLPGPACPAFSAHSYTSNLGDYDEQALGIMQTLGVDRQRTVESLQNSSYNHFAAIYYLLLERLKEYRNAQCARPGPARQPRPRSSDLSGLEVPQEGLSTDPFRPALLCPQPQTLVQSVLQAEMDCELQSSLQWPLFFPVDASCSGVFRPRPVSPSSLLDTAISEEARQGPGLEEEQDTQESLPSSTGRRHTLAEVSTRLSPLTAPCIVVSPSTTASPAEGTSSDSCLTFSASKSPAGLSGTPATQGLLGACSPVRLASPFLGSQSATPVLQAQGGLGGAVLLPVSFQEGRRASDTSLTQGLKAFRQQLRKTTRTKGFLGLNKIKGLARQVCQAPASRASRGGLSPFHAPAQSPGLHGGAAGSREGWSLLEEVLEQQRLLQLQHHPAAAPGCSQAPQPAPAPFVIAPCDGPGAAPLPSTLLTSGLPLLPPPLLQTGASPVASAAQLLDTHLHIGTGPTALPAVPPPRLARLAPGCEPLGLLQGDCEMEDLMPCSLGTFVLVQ
T32 sequence (Q8IW41 whole entry): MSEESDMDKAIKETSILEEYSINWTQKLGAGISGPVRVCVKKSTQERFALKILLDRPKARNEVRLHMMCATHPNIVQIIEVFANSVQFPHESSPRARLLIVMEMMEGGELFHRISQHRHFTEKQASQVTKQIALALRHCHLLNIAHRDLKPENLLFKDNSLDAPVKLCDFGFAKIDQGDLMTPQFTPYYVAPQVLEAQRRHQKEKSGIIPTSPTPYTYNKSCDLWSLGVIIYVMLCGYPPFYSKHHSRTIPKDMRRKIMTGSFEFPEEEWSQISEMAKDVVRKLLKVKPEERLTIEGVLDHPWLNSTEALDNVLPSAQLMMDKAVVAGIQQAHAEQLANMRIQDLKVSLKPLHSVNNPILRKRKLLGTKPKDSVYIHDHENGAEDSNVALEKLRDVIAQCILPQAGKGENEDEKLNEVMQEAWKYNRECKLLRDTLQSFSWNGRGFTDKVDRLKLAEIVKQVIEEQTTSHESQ
T1 sequence (P11362 22-822): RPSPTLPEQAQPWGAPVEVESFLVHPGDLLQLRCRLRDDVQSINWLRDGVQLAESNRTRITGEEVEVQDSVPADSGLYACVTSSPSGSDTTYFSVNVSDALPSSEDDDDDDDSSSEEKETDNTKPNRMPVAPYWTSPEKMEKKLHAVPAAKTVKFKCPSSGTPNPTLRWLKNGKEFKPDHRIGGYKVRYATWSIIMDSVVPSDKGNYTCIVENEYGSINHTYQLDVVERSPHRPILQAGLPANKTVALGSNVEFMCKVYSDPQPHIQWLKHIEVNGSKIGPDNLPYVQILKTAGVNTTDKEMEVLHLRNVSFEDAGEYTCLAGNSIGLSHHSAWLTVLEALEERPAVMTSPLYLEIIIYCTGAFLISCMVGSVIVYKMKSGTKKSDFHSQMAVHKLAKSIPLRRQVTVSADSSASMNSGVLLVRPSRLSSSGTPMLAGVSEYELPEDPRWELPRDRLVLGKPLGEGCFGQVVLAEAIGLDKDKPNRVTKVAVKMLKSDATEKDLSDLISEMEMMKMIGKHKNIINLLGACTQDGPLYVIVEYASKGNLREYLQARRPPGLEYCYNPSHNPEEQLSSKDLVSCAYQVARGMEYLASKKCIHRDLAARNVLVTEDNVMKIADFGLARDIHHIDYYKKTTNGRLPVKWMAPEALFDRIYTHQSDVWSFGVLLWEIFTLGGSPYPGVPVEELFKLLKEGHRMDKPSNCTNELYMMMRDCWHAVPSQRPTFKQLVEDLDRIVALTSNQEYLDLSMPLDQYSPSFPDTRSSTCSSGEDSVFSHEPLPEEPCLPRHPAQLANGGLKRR

Cc1ccccc1-n1c(C(C)Nc2nc(N)nc3nc[nH]c23)nc2cccc(C)c2c1=O (stereo not drawn) [CAL-130]
100%: all assays above

Reference: patent US11969428B2, “Methods and pharmaceutical compositions for treating lymphoid malignancy” (priority 2011, dated 2024)
